The text below walks through data of US20090215025A1, “SMALL PEPTIDIC AND PEPTIDO-MIMETIC AFFINITY LIGANDS FOR FACTOR VIII AND FACTOR VIII-LIKE PROTEINS” (TECHNISCHE UNIVERSITAT MUNCHEN, priority 2005, published 2009).

For assay [1], the target named is T1, Kogenate® (recombinant form of FVIII) (Homo sapiens, UniProt P00451).
T1 construct: purchased Bayer; host or cells: baby hamster kidney (BHK) cells
Nature of the assay: Binding of 125I-Kogenate to peptide-coated resin. The following applies: resin coated with peptide. Here is the method: (§1) The resin with immobilized peptides was washed in the binding buffer (0.01 M Hepes, 0.1 M NaCl, 5 mM CaCl2, 0.01% Tween-80). Subsequently, the resin was diluted in the binding buffer as 1:7 slurry and aliquoted into Eppendorf tubes (40 μl per tube). ^125I-pd-FVIII (100000 cpm in 10 μl) was added to the tubes and the volume of the mixture was adjusted to 100 μl by adding 50 μl of the binding buffer containing 4% BSA to give a 2% final concentration of BSA. After 2 hours of incubation at room temperature on a rotator, the samples were washed 4 times in the binding. […] After four washes the tubes with pellet without supernatant were counted for radioactivity. The resin without peptide was processed similarly to account for non-specific pd-FVIII binding to tubes and resin itself, and the radioactivity in this control tube was considered as a background value. Since ^125I-pd-FVIII contains the some fraction damaged during radiolabeling, binding was calculated as a percent of maximal achievable binding, determined in separate experiment with anti-FVIII Mab 8860-coated resin. […]
(§2) Kogenate® and ReFacto® were iodinated in the same manner as described in Example 1 with respect to the pd-FVIII. Protein binding was measured using the same procedures as described in Example 1 above.

In assay [2] the target is T2, plasma-derived (pd-) human Factor VIII (FVIII) (Homo sapiens, UniProt P00451).
T2 construct: from tissue; host or cells: human blood plasma (FVIII concentrate)
T2 sequence (P00451 20-1667 limits assumed, one chain of several): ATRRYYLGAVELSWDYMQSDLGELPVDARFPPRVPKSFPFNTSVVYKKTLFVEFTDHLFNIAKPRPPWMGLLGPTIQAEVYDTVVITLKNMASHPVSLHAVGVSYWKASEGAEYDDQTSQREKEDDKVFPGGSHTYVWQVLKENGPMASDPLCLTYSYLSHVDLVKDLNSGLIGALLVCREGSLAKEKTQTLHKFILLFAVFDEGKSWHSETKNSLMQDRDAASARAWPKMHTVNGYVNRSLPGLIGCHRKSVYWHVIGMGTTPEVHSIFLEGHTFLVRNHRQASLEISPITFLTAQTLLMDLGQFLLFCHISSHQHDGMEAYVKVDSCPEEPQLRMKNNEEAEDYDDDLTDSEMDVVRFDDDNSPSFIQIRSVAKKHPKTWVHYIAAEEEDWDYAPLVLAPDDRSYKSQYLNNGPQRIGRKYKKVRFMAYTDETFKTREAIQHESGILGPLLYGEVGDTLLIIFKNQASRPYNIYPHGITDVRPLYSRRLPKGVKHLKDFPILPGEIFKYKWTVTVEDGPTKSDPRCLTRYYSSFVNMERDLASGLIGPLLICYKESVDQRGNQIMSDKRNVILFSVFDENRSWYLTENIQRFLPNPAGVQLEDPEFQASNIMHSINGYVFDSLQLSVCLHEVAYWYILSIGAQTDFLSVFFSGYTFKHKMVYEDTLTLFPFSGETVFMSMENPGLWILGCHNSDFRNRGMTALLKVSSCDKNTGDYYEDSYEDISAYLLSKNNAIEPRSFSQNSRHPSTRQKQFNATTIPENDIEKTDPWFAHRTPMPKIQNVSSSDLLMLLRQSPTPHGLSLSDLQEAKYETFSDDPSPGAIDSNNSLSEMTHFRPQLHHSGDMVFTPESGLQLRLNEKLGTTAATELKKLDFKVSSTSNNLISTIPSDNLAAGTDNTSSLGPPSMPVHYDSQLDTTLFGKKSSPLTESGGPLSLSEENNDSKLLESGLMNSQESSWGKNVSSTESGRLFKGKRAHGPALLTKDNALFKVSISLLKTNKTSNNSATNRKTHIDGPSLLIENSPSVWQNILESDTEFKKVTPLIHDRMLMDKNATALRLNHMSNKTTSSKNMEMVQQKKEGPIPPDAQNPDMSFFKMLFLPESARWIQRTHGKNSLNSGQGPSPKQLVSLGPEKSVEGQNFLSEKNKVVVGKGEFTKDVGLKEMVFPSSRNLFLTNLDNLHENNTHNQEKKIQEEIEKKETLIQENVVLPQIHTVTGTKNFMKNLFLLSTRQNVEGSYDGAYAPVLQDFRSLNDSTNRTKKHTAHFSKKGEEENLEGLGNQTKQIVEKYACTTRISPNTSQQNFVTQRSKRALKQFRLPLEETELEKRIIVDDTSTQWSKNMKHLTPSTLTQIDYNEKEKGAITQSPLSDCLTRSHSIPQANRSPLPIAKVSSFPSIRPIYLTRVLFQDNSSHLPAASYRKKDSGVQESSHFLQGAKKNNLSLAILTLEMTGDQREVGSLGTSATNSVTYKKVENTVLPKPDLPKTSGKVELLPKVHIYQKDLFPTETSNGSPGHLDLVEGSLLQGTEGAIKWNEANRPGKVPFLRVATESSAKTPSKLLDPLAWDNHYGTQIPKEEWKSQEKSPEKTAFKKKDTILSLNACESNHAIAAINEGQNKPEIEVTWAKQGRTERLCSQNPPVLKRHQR
Nature of the assay: Binding of 125I-labeled pd-FVIII to peptides immobilized on Toyopearl AF-Epoxy-650M resin (micro-beads assay). The following applies: Table 1. The protocol: Peptides P1 to P25 were immobilized on the Toyopearl AF-Epoxy-650M resin (Tosoh Biosep) as described by Jungbauer et al. For immobilization, 2.5 mg of each peptide was dissolved in 0.25 mL of the immobilization buffer (0.2 M sodium bicarbonate, pH 10.3), and 0.036 g of the dry resin powder (corresponding to 0.125 mL of swollen resin) was added, followed by incubation of the mixture with gentle rotation for 48 hours. Upon incubation for 48 hours the resin was washed once with immobilization buffer, once with 1 M NaCl and then 3 times with binding buffer, and binding of ^125I-labeled pd-FVIII to the peptide-coated and control resin was tested. The coupling density of each peptide in each of the reported experiments was as mentioned in Table 1. The control 0.25 mL portion of the resin was similarly treated in parallel experiment in the absence of peptide and was subsequently used as a control (designated as Background) in ^125I-pd-FVIII binding experiments. ^125I-pd-FVIII Bound/Background ratios were calculated as the amount of ^125I-pd-FVIII, bound to an immobilized peptide, divided by that bound to uncoated control resin, prepared as described above. This ratio represents a Signal/Noise ratio for the micro-beads assay, since ^125I-pd-FVIII bound to peptide represents the signal value and ^125I-pd-FVIII bound to peptide-uncoated resin represents the background (noise) value.
Plasma-derived (pd-) human Factor VIII (FVIII) was purified from concentrate by immunoaffinity chromatography on an anti-FVIII monoclonal antibody column followed by subsequent concentration of pd-FVIII by ion-exchange chromatography using Resource Q HR5/5 column. To separate FVIII from vWf, concentrate was incubated in 0.35 M NaCl, 0.04 M CaCl2, prior to affinity purification.
Trace amounts of vWf, which are potentially present in pd-FVIII preparation, were removed by passing pd-FVIII preparation through the column with anti-vWf high affinity monoclonal antibody, immobilized at the density 1.4 mg per mL of resin.
Ten μg of purified pd-FVIII were iodinated using lactoperoxidase beads and 0.5 mCi of Na^125I.
The resin with immobilized peptides was washed in the binding buffer (0.01 M Hepes, 0.1 M NaCl, 5 mM CaCl2, 0.01% Tween-80). Subsequently, the resin was diluted in the binding buffer as 1:7 slurry and aliquoted into Eppendorf tubes (40 μl per tube). ^125I-pd-FVIII (100000 cpm in 10 μl) was added to the tubes and the volume of the mixture was adjusted to 100 μl by adding 50 μl of the binding buffer containing 4% BSA to give a 2% final concentration of BSA. After 2 hours of incubation at room temperature on a rotator, the samples were washed 4 times in the binding. After each wash the tubes were centrifuged at 5000 rpm for 1 min in an Eppendorf microcentrifuge, supernatant was discarded, and the resin was re-suspended in the washing buffer, followed by centrifugation under the same conditions. After four washes the tubes with pellet without supernatant were counted for radioactivity. The resin without peptide was processed similarly to account for non-specific pd-FVIII binding to tubes and resin itself, and the radioactivity in this control tube was considered as a background value. Since ^125I-pd-FVIII contains the some fraction damaged during radiolabeling, binding was calculated as a percent of maximal achievable binding, determined in separate experiment with anti-FVIII Mab 8860-coated resin.
All the measurements were performed in duplicates. Each experiment was performed using two independently prepared immobilized peptide samples. The data presented in each figure are the mean values of the four determinations: duplicate determination in the two assays performed with beads on which peptides were independently immobilized on the different days. […]

Assay [3] concerns the target T3, ReFacto® (recombinant form of FVIII) (Homo sapiens, UniProt P00451, DEL763-1656).
T3 construct: purchased Wyeth-Ayerst Pharmacia and Upjohn; host or cells: CHO cells
T3 sequence (P00451 with tags, fused parts or gaps DEL763-1656 limits assumed): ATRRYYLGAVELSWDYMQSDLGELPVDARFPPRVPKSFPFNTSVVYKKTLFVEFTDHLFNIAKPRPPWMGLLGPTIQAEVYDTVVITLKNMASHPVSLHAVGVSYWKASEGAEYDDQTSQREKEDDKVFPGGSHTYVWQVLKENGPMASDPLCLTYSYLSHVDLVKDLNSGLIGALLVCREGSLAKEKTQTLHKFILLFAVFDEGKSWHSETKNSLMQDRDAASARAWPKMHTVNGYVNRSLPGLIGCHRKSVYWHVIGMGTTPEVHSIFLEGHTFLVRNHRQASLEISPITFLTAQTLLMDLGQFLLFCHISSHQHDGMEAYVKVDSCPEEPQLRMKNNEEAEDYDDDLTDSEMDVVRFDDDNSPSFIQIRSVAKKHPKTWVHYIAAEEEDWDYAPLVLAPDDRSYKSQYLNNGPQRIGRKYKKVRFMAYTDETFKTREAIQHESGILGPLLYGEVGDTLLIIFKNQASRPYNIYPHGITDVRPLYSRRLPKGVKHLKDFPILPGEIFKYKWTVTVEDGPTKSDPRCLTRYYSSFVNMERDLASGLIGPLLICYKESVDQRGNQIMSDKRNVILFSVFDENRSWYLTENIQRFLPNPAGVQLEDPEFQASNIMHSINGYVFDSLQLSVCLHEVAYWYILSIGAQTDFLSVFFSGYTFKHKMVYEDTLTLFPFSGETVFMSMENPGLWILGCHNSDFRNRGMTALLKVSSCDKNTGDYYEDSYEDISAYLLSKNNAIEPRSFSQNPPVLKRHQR
T3 sequence (P00451 1668-2351 limits assumed): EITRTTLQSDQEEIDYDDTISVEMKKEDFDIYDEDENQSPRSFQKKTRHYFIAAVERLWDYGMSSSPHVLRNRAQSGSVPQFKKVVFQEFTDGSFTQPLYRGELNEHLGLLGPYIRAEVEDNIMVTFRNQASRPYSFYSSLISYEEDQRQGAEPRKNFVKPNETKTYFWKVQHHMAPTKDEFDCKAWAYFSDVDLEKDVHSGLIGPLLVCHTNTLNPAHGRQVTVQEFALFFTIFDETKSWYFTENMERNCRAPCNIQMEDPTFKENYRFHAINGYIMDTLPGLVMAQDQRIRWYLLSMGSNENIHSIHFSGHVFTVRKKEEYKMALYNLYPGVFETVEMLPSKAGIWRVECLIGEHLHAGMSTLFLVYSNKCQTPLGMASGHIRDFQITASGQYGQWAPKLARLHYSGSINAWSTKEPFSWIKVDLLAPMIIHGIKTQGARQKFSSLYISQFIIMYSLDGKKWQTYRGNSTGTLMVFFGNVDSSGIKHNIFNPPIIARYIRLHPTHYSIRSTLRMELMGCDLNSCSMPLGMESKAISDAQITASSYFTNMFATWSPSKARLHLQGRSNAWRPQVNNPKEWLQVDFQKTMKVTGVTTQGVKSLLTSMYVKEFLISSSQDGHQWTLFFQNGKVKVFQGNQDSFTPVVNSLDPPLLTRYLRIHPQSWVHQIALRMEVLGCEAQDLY
Nature of the assay: Binding of 125I-ReFacto to peptide-coated resin. The following applies: resin coated with peptide. The protocol: as §1, §2

T1 sequence (P00451 20-1667 limits assumed, one chain of several): as the sequence (P00451 20-1667 limits assumed, one chain of several) above

For the substance IAA-Glu-Tyr-Cys-OH [Compound P15], the “125I-Kogenated FS binding (% of total)” value in assay [1] is 49.6 ± 1.7 % of total. In addition, the “Binding, rel. to control” value in assay [2] (125I-pd-FVIII Bound/Background ratio versus uncoated control resin) turned out to be 39.3 ± 0.3. For the same substance, in assay [2] (immobilized on Toyopearl AF-Epoxy-650M, percent of maximal achievable binding (anti-FVIII Mab 8860-coated resin), mean of four determinations), the “% Binding pdFVIII” value is reported as 75.4 ± 0.6%. Further, the “125I-ReFacto binding (% of total)” value in assay [3] is listed as 54.9 ± 6.3 % of total.
